The target in one experiment is NAMPT (Homo sapiens (Human), UniProt P43490). Nature of the experiment: Biochemical Inhibition Assay (NAMPT enzymatic reaction, NMN quantified by mass spectrometry). To be noted: recombinant His-tagged NAMPT, 33 nM; 1 μM NAM; read-out: Biochem IC50. The method in brief:
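His-tagged human NAMPT from E. coli was preincubated 15 min at RT with compound in Hepes pH 7.5/MgCl2 buffer. Reaction ran 30 min at RT with 1 μM NAM, 100 μM PRPP and 2.5 mM ATP, then was quenched with formic acid. NMN was measured by RapidFire MS, normalized to L-cystathionine, and IC50 derived from % inhibition.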

The next experiment deals with A2780 cells. Nature of the experiment: In-Vitro Cell Proliferation Assay (SRB, 72 hours). The class given is cell-based. The following applies: Homo sapiens, A2780, 72 h, read-out: A2780 IC50. The method in brief: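 Plated cells exposed to serially diluted compound (0.1% DMSO final) for 72 h at 37 °C, 5% CO2. Viability by SRB staining after TCA fixation, absorbance 570 nm, media-only background subtracted; % inhibition relative to DMSO-treated cells, interpolated between bracketing concentrations.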

Where [1] appears, read: A2780 cells, 72 hours, sulforhodamine B.

pIC50: −log10 of the molar value. Where two headings read alike, the source gives them in different places.

Chain of NAMPT (P43490 whole entry): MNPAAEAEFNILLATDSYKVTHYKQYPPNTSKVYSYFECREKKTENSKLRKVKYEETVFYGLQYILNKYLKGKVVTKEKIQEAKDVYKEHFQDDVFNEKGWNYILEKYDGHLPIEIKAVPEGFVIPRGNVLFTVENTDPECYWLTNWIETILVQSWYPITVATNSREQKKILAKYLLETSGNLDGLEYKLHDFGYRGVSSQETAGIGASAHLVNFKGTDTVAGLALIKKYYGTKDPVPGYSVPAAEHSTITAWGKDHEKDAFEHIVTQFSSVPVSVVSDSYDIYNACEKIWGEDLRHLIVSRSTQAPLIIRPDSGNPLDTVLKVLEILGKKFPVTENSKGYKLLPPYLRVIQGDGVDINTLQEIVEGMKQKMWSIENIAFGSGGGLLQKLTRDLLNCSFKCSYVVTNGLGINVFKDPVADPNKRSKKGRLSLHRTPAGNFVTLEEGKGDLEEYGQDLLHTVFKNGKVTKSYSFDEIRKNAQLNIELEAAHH

What is called pIC50 is −log10 of the IC50, conventionally taken in molar units. Turning to `COc1cncc(S(=O)(=O)c2ccc(NC(=O)/C=C/c3cccnc3)cc2)c1` [(2E)-N-[4-(5-methoxypyridine-3-sulfonyl)phenyl]-3-(pyridin-3-yl)prop-2-enamide], the pIC50 at NAMPT is 7.81; in the experiment with A2780 cells (setting [1]), 7.06.
In the same order, the values of `O=C(/C=C/c1cccnc1)Nc1ccc(S(=O)(=O)c2cnc3ccccc3c2)cc1` [(2E)-3-(pyridin-3-yl)-N-[4-(quinoline-3-sulfonyl)phenyl]prop-2-enamide] are 8.43 and 7.00.
In the same order, the values of `O=C(/C=C/c1cccnc1)Nc1ccc(S(=O)(=O)N2CCC(N3CCOCC3)CC2)cc1` [(2E)-N-{4-[4-(morpholin-4-yl)piperidine-1-sulfonyl]phenyl}-3-(pyridin-3-yl)prop-2-enamide] are 8.00 and 6.68.
Take `CS(=O)(=O)Nc1cccc(S(=O)(=O)c2ccc(NC(=O)/C=C/c3cccnc3)cc2)c1` [(2E)-N-{4-[(3-methanesulfonamidobenzene)sulfonyl]phenyl}-3-(pyridin-3-yl)prop-2-enamide]: the negative-log IC50 (pIC50) at NAMPT was 8.12; with A2780 cells (setting [1]) it was 6.00 to 7.00.
With `Cc1cc(F)cc(S(=O)(=O)c2ccc(NC(=O)/C=C/c3cccnc3)cc2)c1` [(2E)-N-{4-[(3-fluoro-5-methylbenzene)sulfonyl]phenyl}-3-(pyridin-3-yl)prop-2-enamide], the pIC50 on NAMPT is 7.76; in the experiment on A2780 cells (setting [1]) it was 6.97.
The corresponding values for `O=C(/C=C/c1cccnc1)Nc1ccc(S(=O)(=O)c2cccc(-n3cccn3)c2)cc1` [(2E)-N-(4-{[3-(1H-pyrazol-1-yl)benzene]sulfonyl}phenyl)-3-(pyridin-3-yl)prop-2-enamide] are 8.32 and 7.06.
The corresponding values for `Cc1cc(S(=O)(=O)c2ccc(NC(=O)/C=C/c3cccnc3)cc2)ccc1F` [(2E)-N-{4-[(4-fluoro-3-methylbenzene)sulfonyl]phenyl}-3-(pyridin-3-yl)prop-2-enamide] are 7.66 and 6.00 to 7.00.
In the same order, the values of `CCCOc1ccc(S(=O)(=O)c2ccc(NC(=O)/C=C/c3cccnc3)cc2)cc1F` [(2E)-N-{4-[(3-fluoro-4-propoxybenzene)sulfonyl]phenyl}-3-(pyridin-3-yl)prop-2-enamide] are 7.39 and 6.00 to 7.00.
Turning to `COc1ccc(C(F)(F)F)cc1S(=O)(=O)c1ccc(NC(=O)/C=C/c2cccnc2)cc1` [(2E)-N-(4-{[2-methoxy-5-(trifluoromethyl)benzene]sulfonyl}phenyl)-3-(pyridin-3-yl)prop-2-enamide], the pIC50 is 7.62 on NAMPT and 7.72 with A2780 cells (setting [1]).
`COCc1cccc(S(=O)(=O)c2ccc(NC(=O)/C=C/c3cccnc3)cc2)c1` [(2E)-N-(4-{[3-(methoxymethyl)benzene]sulfonyl}phenyl)-3-(pyridin-3-yl)prop-2-enamide]: the negative logarithm of the IC50 (pIC50) at NAMPT is 8.11; with A2780 cells (setting [1]), 7.11.
Regarding `O=C(/C=C/c1cccnc1)Nc1ccc(S(=O)(=O)c2cccc(C(=O)NC3CCCC3)c2)cc1` [N-cyclopentyl-3-({4-[(2E)-3-(pyridin-3-yl)prop-2-enamido]benzene}sulfonyl)benzamide], the results for the negative-log IC50 (pIC50) on NAMPT and in the experiment with A2780 cells (setting [1]) were 7.79 and 6.00 to 7.00, respectively.
`COc1ccc(C)cc1S(=O)(=O)c1ccc(NC(=O)/C=C/c2cccnc2)cc1` [(2E)-N-{4-[(2-methoxy-5-methylbenzene)sulfonyl]phenyl}-3-(pyridin-3-yl)prop-2-enamide]: the pIC50 at NAMPT was 8.74; in the experiment on A2780 cells (setting [1]) it was 8.14.
As for `O=C(/C=C/c1cccnc1)Nc1ccc(S(=O)(=O)c2cccc3cc[nH]c23)cc1` [(2E)-N-[4-(1H-indole-7-sulfonyl)phenyl]-3-(pyridin-3-yl)prop-2-enamide], the pIC50 on NAMPT is 8.08; in the experiment on A2780 cells (setting [1]), 7.88.
The corresponding values for `CCc1cccc(S(=O)(=O)c2ccc(NC(=O)/C=C/c3cccnc3)cc2)c1` [(2E)-N-{4-[(3-ethylbenzene)sulfonyl]phenyl}-3-(pyridin-3-yl)prop-2-enamide] are 8.48 and 7.52.
The corresponding values for `CC(C)Oc1cccc(S(=O)(=O)c2ccc(NC(=O)/C=C/c3cccnc3)cc2)c1` [(2E)-N-(4-{[3-(propan-2-yloxy)benzene]sulfonyl}phenyl)-3-(pyridin-3-yl)prop-2-enamide] are 8.96 and 7.31.
For the compound `CN(C)c1ccc(S(=O)(=O)c2ccc(NC(=O)/C=C/c3cccnc3)cc2)cn1` [(2E)-N-{4-[6-(dimethylamino)pyridine-3-sulfonyl]phenyl}-3-(pyridin-3-yl)prop-2-enamide], the negative logarithm of the IC50 (pIC50) is 8.29 at NAMPT and 7.11 in the experiment on A2780 cells (setting [1]).
Regarding `O=C(/C=C/c1cccnc1)Nc1ccc(S(=O)(=O)c2cccc(Cl)c2)cc1` [(2E)-N-{4-[(3-chlorobenzene)sulfonyl]phenyl}-3-(pyridin-3-yl)prop-2-enamide], the negative-log IC50 (pIC50) on NAMPT was 6.91; in the experiment on A2780 cells, 6.74.
On to `NS(=O)(=O)c1cccc(S(=O)(=O)c2ccc(NC(=O)/C=C/c3cccnc3)cc2)c1` [(2E)-3-(pyridin-3-yl)-N-{4-[(3-sulfamoylbenzene)sulfonyl]phenyl}prop-2-enamide], for which the figures for the pIC50 at NAMPT and in the experiment with A2780 cells (setting [1]) were 8.00 and 6.00 to 7.00, respectively.
In the same order, the values of `CCOc1ccc(S(=O)(=O)c2ccc(NC(=O)/C=C/c3cccnc3)cc2)cc1` [(2E)-N-{4-[(4-ethoxybenzene)sulfonyl]phenyl}-3-(pyridin-3-yl)prop-2-enamide] are 7.56 and 6.00 to 7.00.
`Cc1cc(C)cc(S(=O)(=O)c2ccc(NC(=O)/C=C/c3cccnc3)cc2)c1` [(2E)-N-{4-[(3,5-dimethylbenzene)sulfonyl]phenyl}-3-(pyridin-3-yl)prop-2-enamide]: the pIC50 at NAMPT is 7.77; in the experiment with A2780 cells (setting [1]) it was 7.02.
For `CCCn1cc(S(=O)(=O)c2ccc(NC(=O)/C=C/c3cccnc3)cc2)cn1` [(2E)-N-[4-(1-propyl-1H-pyrazole-4-sulfonyl)phenyl]-3-(pyridin-3-yl)prop-2-enamide], the results for the pIC50 at NAMPT and in the experiment on A2780 cells (setting [1]) were 8.59 and 7.68, respectively.
`O=C(/C=C/c1cccnc1)Nc1ccc(S(=O)(=O)c2ccc(Cl)cc2)cc1` [(2E)-N-{4-[(4-chlorobenzene)sulfonyl]phenyl}-3-(pyridin-3-yl)prop-2-enamide]: the pIC50 at NAMPT was 7.36; in the experiment with A2780 cells (setting [1]), 6.00 to 7.00.
With `O=C(/C=C/c1cccnc1)Nc1ccc(S(=O)(=O)c2ccc(C(F)(F)F)c(Cl)c2)cc1` [(2E)-N-(4-{[3-chloro-4-(trifluoromethyl)benzene]sulfonyl}phenyl)-3-(pyridin-3-yl)prop-2-enamide], the results for the pIC50 at NAMPT and in the experiment on A2780 cells (setting [1]) were 7.36 and 6.00 to 7.00, respectively.
In the same order, the values of `O=C(/C=C/c1cccnc1)Nc1ccc(S(=O)(=O)c2ccc(N3CCOCC3)cc2)cc1` [(2E)-N-(4-{[4-(morpholin-4-yl)benzene]sulfonyl}phenyl)-3-(pyridin-3-yl)prop-2-enamide] are 7.61 and 7.26.
`O=C(/C=C/c1cccnc1)Nc1ccc(S(=O)(=O)c2cc(Cl)cc(C(F)(F)F)c2)cc1` [(2E)-N-(4-{[3-chloro-5-(trifluoromethyl)benzene]sulfonyl}phenyl)-3-(pyridin-3-yl)prop-2-enamide]: the pIC50 on NAMPT is 8.09; in the experiment with A2780 cells (setting [1]), 7.23.
The corresponding values for `O=C(/C=C/c1cccnc1)Nc1ccc(S(=O)(=O)c2cccc(OC(F)(F)F)c2)cc1` [(2E)-3-(pyridin-3-yl)-N-(4-{[3-(trifluoromethoxy)benzene]sulfonyl}phenyl)prop-2-enamide] are 7.21 and 7.32.

The values are drawn from patent US9169209B2, “Compounds and compositions for the inhibition of NAMPT” (FORMA TM, LLC, priority 2011, dated 2015).
